# Measurements published in ChEMBL document CHEMBL1134402, “Atropisomeric derivatives of 2',6'-disubstituted (R)-11-phenylaporphine: selective serotonin 5-HT(7) receptor antagonists” (J Med Chem, 2001).
# Tests used:
# [1] = target: T1, 5-hydroxytryptamine receptor 1A (Homo sapiens, UniProt P08908); test: Displacement of [3H]8-OH-DPAT from human 5-hydroxytryptamine 1A receptor expressed in CHO cells; format: cell-based
# T1 sequence (P08908 whole entry): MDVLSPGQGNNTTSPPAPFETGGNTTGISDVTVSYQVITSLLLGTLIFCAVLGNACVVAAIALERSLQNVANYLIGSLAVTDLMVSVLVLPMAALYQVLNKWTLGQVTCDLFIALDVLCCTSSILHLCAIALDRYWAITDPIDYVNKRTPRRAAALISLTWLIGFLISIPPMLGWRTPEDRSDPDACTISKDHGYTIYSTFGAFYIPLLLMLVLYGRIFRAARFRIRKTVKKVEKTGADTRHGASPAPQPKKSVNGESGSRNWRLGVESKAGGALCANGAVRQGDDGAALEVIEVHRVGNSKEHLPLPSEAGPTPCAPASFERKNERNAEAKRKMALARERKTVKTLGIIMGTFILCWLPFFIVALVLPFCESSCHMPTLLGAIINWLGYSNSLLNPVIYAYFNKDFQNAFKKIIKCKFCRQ
# [2] = target: 5-hydroxytryptamine receptor 7 (Rattus norvegicus, UniProt P32305); test: Displacement of [3H]5-HT from rat 5-hydroxytryptamine 7 receptor expressed in CHO cells; format: cell-based
# 5-hydroxytryptamine receptor 7, sequence (P32305 whole entry): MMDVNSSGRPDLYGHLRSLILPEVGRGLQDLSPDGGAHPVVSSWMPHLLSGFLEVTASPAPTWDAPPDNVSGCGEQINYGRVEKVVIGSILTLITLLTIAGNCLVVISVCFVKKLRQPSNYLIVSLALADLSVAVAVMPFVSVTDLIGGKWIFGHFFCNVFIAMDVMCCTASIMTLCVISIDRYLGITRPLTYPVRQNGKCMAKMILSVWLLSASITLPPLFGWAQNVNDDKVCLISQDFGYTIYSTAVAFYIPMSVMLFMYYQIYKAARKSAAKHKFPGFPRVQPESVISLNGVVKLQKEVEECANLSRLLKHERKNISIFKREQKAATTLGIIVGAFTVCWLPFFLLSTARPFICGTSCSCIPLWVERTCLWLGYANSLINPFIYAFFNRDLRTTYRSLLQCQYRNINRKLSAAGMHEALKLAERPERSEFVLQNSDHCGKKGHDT
# [3] = target: D(2) dopamine receptor (Homo sapiens, UniProt P14416); test: Displacement of [3H]raclopride from human dopamine receptor D2A expressed in mouse Ltk cells; format: cell-based
# D(2) dopamine receptor, sequence (P14416 whole entry): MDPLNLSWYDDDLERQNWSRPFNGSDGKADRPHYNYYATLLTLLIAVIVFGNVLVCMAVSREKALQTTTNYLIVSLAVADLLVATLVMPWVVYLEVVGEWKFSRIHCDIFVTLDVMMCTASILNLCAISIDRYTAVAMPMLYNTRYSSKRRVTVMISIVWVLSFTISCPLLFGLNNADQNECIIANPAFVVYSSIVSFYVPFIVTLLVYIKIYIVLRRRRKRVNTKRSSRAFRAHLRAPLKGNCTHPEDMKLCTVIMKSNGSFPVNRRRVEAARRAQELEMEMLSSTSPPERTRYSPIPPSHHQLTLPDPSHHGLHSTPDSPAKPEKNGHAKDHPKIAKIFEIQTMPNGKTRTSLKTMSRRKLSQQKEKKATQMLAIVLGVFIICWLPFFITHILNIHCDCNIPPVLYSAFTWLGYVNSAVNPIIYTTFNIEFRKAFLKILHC
# [4] = target: 5-hydroxytryptamine receptor 7 (Rattus norvegicus) (UniProt P32305); test: Percent inhibition of 5-HT7-induced stimulation of cAMP production in CHO cells expressing rat 5-HT receptors at a concentration of 10000 nM; format: cell-based
# 5-hydroxytryptamine receptor 7 (Rattus norvegicus), sequence (P32305 whole entry): as the sequence (P32305 whole entry) above
# [5] = target: 5-hydroxytryptamine receptor 7 (Rattus norvegicus) (UniProt P32305); test: Percent inhibition of 5-HT7-induced stimulation of cAMP production in CHO cells expressing rat 5-HT receptors at a concentration of 100 nM; format: cell-based
# [6] = target: 5-hydroxytryptamine receptor 7 (Rattus norvegicus) (UniProt P32305); test: Percent inhibition of 5-HT7-induced stimulation of cAMP production in CHO cells expressing rat 5-HT receptors at a concentration of 1 nM; format: cell-based
# [7] = target: 5-hydroxytryptamine receptor 7 (Rattus norvegicus) (UniProt P32305); details: CHO; 10000 nM
# [8] = target: 5-hydroxytryptamine receptor 7 (Rattus norvegicus) (UniProt P32305); details: CHO; 100 nM
# [9] = target: 5-hydroxytryptamine receptor 7 (Rattus norvegicus) (UniProt P32305); details: CHO; 1 nM
# [10] = target: 5-hydroxytryptamine receptor 7 (Rattus norvegicus) (UniProt P32305); test: Percent inhibition of 5-HT7-induced stimulation of cAMP production in CHO cells expressing rat 5-HT receptors by 10000 nM 5-HT.; format: cell-based
# [11] = target: 5-hydroxytryptamine receptor 7 (Rattus norvegicus) (UniProt P32305); test: Percent inhibition of 5-HT7-induced stimulation of cAMP production in CHO cells expressing rat 5-HT receptors by 100 nM 5-HT.; format: cell-based
# [12] = target: 5-hydroxytryptamine receptor 7 (Rattus norvegicus) (UniProt P32305); test: Percent inhibition of 5-HT7-induced stimulation of cAMP production in CHO cells expressing rat 5-HT receptors by 1 nM 5-HT.; format: cell-based
SMILES,Ki [1],Ki [2],Ki [3],also measured
O=C1Nc2cccc3c2[C@]1(CCCCN1CC=C(c2ccccc2)CC1)CCC3,170 nM,3.31 nM,105 nM,–
CN1CCc2cccc3c2[C@H]1Cc1cccc(-c2ccccc2)c1-3,1.8 nM,9.78 nM,–,inhibition [4]: 100%; inhibition [5]: 30%; inhibition [6]: 23%
CN1CCc2cccc3c2[C@H]1Cc1cccc(-c2c(OS(=O)(=O)C(F)(F)F)cccc2OS(=O)(=O)C(F)(F)F)c1-3,> 10000 nM,708 nM,2260 nM,–
COc1cccc(OC)c1-c1cccc2c1-c1cccc3c1[C@@H](C2)N(C)CC3,554 nM,13 nM,2030 nM,–
Cc1cccc(C#N)c1-c1cccc2c1-c1cccc3c1[C@@H](C2)N(C)CC3 (stereo in doubt; form 1) [listing 1 of 2 here],778 nM,20.8 nM,2470 nM,–
Cc1cccc(C#N)c1-c1cccc2c1-c1cccc3c1[C@@H](C2)N(C)CC3 (stereo in doubt; form 1) [listing 2 of 2 here],–,–,–,inhibition [7]: 100%; inhibition [8]: 42%; inhibition [9]: 21%
Cc1cccc(O)c1-c1cccc2c1-c1cccc3c1[C@@H](C2)N(C)CC3 (stereo in doubt; form 1) [listing 2 of 2 here],–,–,–,inhibition [10]: 100%; inhibition [11]: 72%; inhibition [12]: 11%
Cc1cccc(O)c1-c1cccc2c1-c1cccc3c1[C@@H](C2)N(C)CC3 (stereo in doubt; form 2) [listing 2 of 2 here],–,–,–,inhibition [4]: 100%; inhibition [5]: 43%; inhibition [6]: 21%
Cc1cccc(S(=O)(=O)N(C)[C@H](C)CCN2CCC(C)CC2)c1 [SB-258719],> 7940 nM,31.6 nM,–,–

# Now from value to molecule, other results behind:
Ki [1],Ki [2],Ki [3],SMILES,also measured
139 nM,36.2 nM,> 1000 nM,CN1CCc2cccc3c2[C@H]1Cc1cccc(-c2c(O)cccc2O)c1-3,–
48.8 nM,23 nM,2500 nM,Cc1cccc(O)c1-c1cccc2c1-c1cccc3c1[C@@H](C2)N(C)CC3 (stereo in doubt; form 1) [listing 1 of 2 here],–
319 nM,43.1 nM,3380 nM,Cc1cccc(O)c1-c1cccc2c1-c1cccc3c1[C@@H](C2)N(C)CC3 (stereo in doubt; form 2) [listing 1 of 2 here],–
142 nM,3.79 nM,498 nM,Cc1cccc(C#N)c1-c1cccc2c1-c1cccc3c1[C@@H](C2)N(C)CC3 (stereo in doubt; form 2),–
